Assay results: publication PMC3171769, “Catalytical Properties of Free and Immobilized Aspergillus niger Tannase” (Enzyme Research, 2011)

System: T1, tannase (tannin acyl hydrolase, TAH) from Aspergillus niger GH1
T1 construct: native intracellular enzyme from submerged culture with tannic acid
Experiment: HPLC of released gallic acid; Lineweaver-Burk
Type: biochemical
Details: free, partially purified enzyme; 50 mM citrate pH 5.5, 30 °C; read-out: Free tannase / K M
Description: HPLC of released gallic acid; Lineweaver-Burk on tannase (tannin acyl hydrolase, TAH) from Aspergillus niger GH1

## COC(=O)c1cc(O)c(O)c(O)c1 [methyl gallate]
  Km: 0.433 mM
